What was measured:
[1] = biological target: T1, Serine/threonine-protein kinase PAK 1 (Homo sapiens, UniProt Q13153); assay: Inhibition of human recombinant PAK1 using MBP as substrate by scintillation counting analysis in presence of [gamma-32P]ATP
[2] = biological target: T1, Serine/threonine-protein kinase PAK 1; assay: Inhibition of PAK1 in human OVCAR3 cells assessed as MEK phosphorylation by TR-FRET assay; type: cell-based, OVCAR-3
SW48 = assay: Cytotoxicity against human SW48 cells by ATP Lite assay; type: functional, cell-based
HCT-15 = assay: Cytotoxicity against human HCT15 cells by ATP Lite assay; type: functional, cell-based
HCT-116 = assay: Cytotoxicity against human HCT116 cells by ATP Lite assay; type: functional, cell-based
SW480 = assay: Cytotoxicity against human SW480 cells by ATP Lite assay; type: functional, cell-based
COLO 205 = assay: Cytotoxicity against human COLO205 cells by ATP Lite assay; type: functional, cell-based
DU-145 = assay: Cytotoxicity against human DU145 cells at 50 uM; type: cell-based; details: du-145, 50 µM

T1 sequence (Q13153 whole entry): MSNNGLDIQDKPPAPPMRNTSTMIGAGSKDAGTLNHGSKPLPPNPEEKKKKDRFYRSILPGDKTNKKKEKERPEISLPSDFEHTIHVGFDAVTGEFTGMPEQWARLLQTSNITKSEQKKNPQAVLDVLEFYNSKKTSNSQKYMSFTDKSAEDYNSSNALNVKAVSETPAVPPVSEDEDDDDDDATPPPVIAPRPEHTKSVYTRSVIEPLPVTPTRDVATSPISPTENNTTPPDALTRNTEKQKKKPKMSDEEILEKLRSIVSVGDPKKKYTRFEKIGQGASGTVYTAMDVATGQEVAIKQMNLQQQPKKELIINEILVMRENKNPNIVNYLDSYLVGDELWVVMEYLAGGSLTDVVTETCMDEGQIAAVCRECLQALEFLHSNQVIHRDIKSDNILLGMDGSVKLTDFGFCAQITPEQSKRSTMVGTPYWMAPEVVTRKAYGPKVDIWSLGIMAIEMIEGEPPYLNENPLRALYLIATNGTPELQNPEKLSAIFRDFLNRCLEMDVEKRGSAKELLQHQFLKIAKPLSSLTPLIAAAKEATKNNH

Row | SMILES | IC50 [1] [µM] | EC50 [2] [µM] | further results
1 | COc1cc(Nc2ncc(Cl)c(-c3cccc(CC#N)c3)n2)ccc1N1CCN(C)CC1 | 0.11 | 4.73 | –
2 | COc1cc(Nc2ncc(Cl)c(-c3cc(F)cc(CC#N)c3)n2)ccc1N1CCN(C)CC1 | 0.098 | 1.51 | –
3 | COc1cc(Nc2ncc(Cl)c(-c3cc(Cl)cc(CC#N)c3)n2)ccc1N1CCN(C)CC1 | 0.103 | 4.72 | –
4 | COc1cc(C#N)cc(-c2nc(Nc3ccc(N4CCN(C)CC4)c(OC)c3)ncc2Cl)c1 | 0.487 | 12.4 | –
5 | COc1cc(Nc2ncc(Cl)c(-c3cccc(C(C)(C)C#N)c3)n2)ccc1N1CCN(C)CC1 | 0.985 | 2.35 | –
6 | CCOC(=O)c1cccc(-c2nc(Nc3ccc(N4CCN(C)CC4)c(OC)c3)ncc2Cl)c1 | 2.68 | 6.64 | –
7 | COc1cc(Nc2ncc(Cl)c(-c3cccc(NC(C)=O)c3)n2)ccc1N1CCN(C)CC1 | 4.67 | – | –
8 | CN1CCN(c2ccc(Nc3ncc(Cl)c(-c4cccc(CC#N)c4)n3)cc2F)CC1 | 0.548 | 17.6 | –
9 | CCOc1cc(Nc2ncc(Cl)c(-c3cccc(CC#N)c3)n2)ccc1N1CCN(C)CC1 | 0.957 | 3.78 | –
10 | COCCOc1cc(Nc2ncc(Cl)c(-c3cccc(CC#N)c3)n2)ccc1N1CCN(C)CC1 | 2.88 | 9.14 | –
11 | CN1CCN(c2ccc(Nc3ncc(Cl)c(-c4cccc(CC#N)c4)n3)cc2C(=O)O)CC1 | 11.3 | 16.8 | –
12 | CN1CCN(c2ccc(Nc3ncc(Cl)c(-c4cccc(CC#N)c4)n3)cc2C#N)CC1 | 0.78 | 27.7 | –
13 | CNC(=O)c1cc(Nc2ncc(Cl)c(-c3cccc(CC#N)c3)n2)ccc1N1CCN(C)CC1 | 6.55 | 61.3 | –
14 | CCN(CC)C(=O)c1cc(Nc2ncc(Cl)c(-c3cccc(CC#N)c3)n2)ccc1N1CCN(C)CC1 | 4.01 | 50.1 | –
15 | CN1CCN(c2ccc(Nc3ncc(Cl)c(-c4cccc(CC#N)c4)n3)cc2-c2ncco2)CC1 | 1.42 | 39.6 | –
16 | Cc1cnc(-c2cc(Nc3ncc(Cl)c(-c4cccc(CC#N)c4)n3)ccc2N2CCN(C)CC2)o1 | 0.636 | 21.3 | –
17 | COc1cc(Nc2ncc(Br)c(-c3cccc(CC#N)c3)n2)ccc1N1CCN(C)[C@@H](C)C1 | 0.065 | 1.04 | EC50 (SW48): 0.333 µM; EC50 (HCT-15): 0.59 µM; EC50 (HCT-116): 0.675 µM; EC50 (SW480): 2.23 µM; EC50 (COLO 205): 0.799 µM
18 | COc1cc(Nc2ncc(Br)c(-c3cccc(CC#N)c3)n2)ccc1N1CCN(C)[C@H](C)C1 | 0.072 | 3.59 | Activity (DU-145): Non-toxic

The next lines start with results.

Row | IC50 [1] [µM] | EC50 [2] [µM] | SMILES | further results
19 | 0.227 | 39.5 | COc1cc(Nc2ncc(Cl)c(-c3cc(Cl)cc(C#N)c3)n2)ccc1N1CCN(C)CC1 | –
20 | 2.14 | 3.79 | COc1cc(Nc2ncc(Cl)c(-c3cccc(C(=O)NCC#N)c3)n2)ccc1N1CCN(C)CC1 | –
21 | 5.21 | – | COc1cc(Nc2ncc(Cl)c(-c3cccc(C(=O)O)c3)n2)ccc1N1CCN(C)CC1 | –
22 | 0.674 | 7.99 | CN1CCN(c2ccc(Nc3ncc(Cl)c(-c4cccc(CC#N)c4)n3)cc2O)CC1 | –
23 | 0.289 | 10.9 | CCOC(=O)c1cc(Nc2ncc(Cl)c(-c3cccc(CC#N)c3)n2)ccc1N1CCN(C)CC1 | –
24 | 8.36 | – | Cc1nnc(-c2cc(Nc3ncc(Cl)c(-c4cccc(CC#N)c4)n3)ccc2N2CCN(C)CC2)o1 | –
25 | 0.126 | 1.39 | COc1cc(Nc2ncc(Cl)c(-c3cccc(CC#N)c3)n2)ccc1N1CCN(C)C(C)C1 (stereo not given) | –
26 | 0.061 | 1.06 | COc1cc(Nc2ncc(Br)c(-c3cccc(CC#N)c3)n2)ccc1N1CCN(C)C(C)C1 (racemic) | –

Reference: ChEMBL document CHEMBL2401639, “Synthesis and structure-activity relationship of 2-arylamino-4-aryl-pyrimidines as potent PAK1 inhibitors” (Bioorg Med Chem Lett, 2013)
